Assay results: patent US8258116B2, “Combination therapy for the treatment of HCV infection” (Vertex Pharmaceuticals Incorporated, priority 2007, dated 2012)
Read-outs that look alike come from different tables or passages of the source.

How the values were obtained:
[1] = test system: HCV NS3 protease variant replicon A156V; settings: A156V replicon versus wild-type (Lin et al., 2005); cited from earlier work
[2] = test system: HCV NS3 protease variant replicon A156T; settings: A156T replicon versus wild-type (Lin et al., 2005); cited from earlier work
[3] = test system: HCV NS3 protease variant replicon V36A; experiment: microbe, parasite or virus in culture; type: cell-based; settings: for IC50: Hepatitis C virus; for Fold Change: V36A, ratio of mutant IC50 to Wild type IC50 for the same inhibitor
Method: (§1) Huh-7 cells were propagated in Dulbecco's modified Eagle's medium (DMEM, JRH Biosciences, Lenexa, Kans.) supplemented with 10% heat-inactivated FBS (fetal bovine serum), 2 mM L-glutamine, and nonessential amino acids (JRH). The cells were transfected with an in vitro transcribed HCV replicon RNA identical to replicon 1377neo/NS3-3′/wt as described by Lohmann et al. (1999). Stable cell clones were selected and maintained in the presence of 250 μg/mL G418 (Invitrogen, Carlsbad, Calif.). […] The HCV NS3 protease variant replicons were constructed in the background of the mADE wild-type replicon as described previously [Chao Lin et al., “In Vitro Resistance Studies of Hepatitis C Virus Serine Protease Inhibitors, VX-950 and BILN 2061: Structural Analysis Indicates Different Resistance Mechanisms,” Journal of Biological Chemistry, 279(17); pp. 17508-17514 (2004)]. The replicon cells were propagated in DMEM supplemented with 10% FBS, 2 mM L-glutamine, nonessential amino acids, and 250 μg/mL G418. The cells were split twice per week in fresh media upon reaching confluence. There are approximately 200-300 copies of HCV RNA per 24-2 replicon cell.
(§2) HCV replicon RNA from cells was measured using the Quantigene Discover XL kit (Panomics Inc., Fremont Calif.) as per the manufacturer's instructions. Briefly, compound-treated replicon cells were lysed and immobilized on to capture plates using HCV specific oligonucleotides (designed based on the 5′ UTR region of HCV 1b genome sequence AJ238799 in the GenBank database) over night and the relative amounts of captured RNA was measured using oligonucleotide probe sets as per the manufacturer's instructions.
(§3) On the day prior to the assay, 10,000 replicon cells were plated per well of a 96-well plate and allowed to attach and grow overnight in DMEM (Invitrogen, Carlsbad, Calif.) supplemented with 10% heat-inactivated FBS (JRH Biosciences, Lenexa, Kans.), 2 mM L-glutamine (Invitrogen), nonessential amino acids (Invitrogen) and 250 μg/ml G418 (Invitrogen). Next day, the medium was removed and antiviral agents that were serially diluted in DMEM containing 2% FBS and 0.5% DMSO (Sigma Chemical Co., St. Louis, Mo.) without G418, was added. The replicon cells were incubated with the antiviral agents for 48 h. HCV replicon RNA from cells was measured using the Quantigene Discover XL kit (Panomics Inc., Fremont Calif.) as per the manufacturer's instructions. Briefly, compound-treated replicon cells were lysed and immobilized onto capture plates using HCV specific oligonucleotides overnight and the relative amounts of captured RNA was measured using oligonucleotide probe sets as per the manufacturer's instructions. Unless indicated otherwise, each data point represents the average of three replicates. The IC50 is the concentration of the compound at which the HCV replicon RNA level in cells is reduced by 50% as compared to the untreated replicon cell controls. To monitor the effect of compounds on cell proliferation or cell viability, replicon cells were treated with serially diluted compounds for 48 h, after which cell viability was determined using a CellTiter Glo assay (Promega, Madison, Wis.). Each CC50 is derived from at least two replicates and is the concentration of the compound at which the number of viable cells is reduced by 50% as compared to untreated cell controls. The IC50 and CC50 was determined using 4-parameter curve fitting in the SoftMax Pro program (Molecular Devices, Sunnyvale, Calif.).
(§4) The sensitivity of NS3 protease variants to ribavirin and interferon was assessed in a 2-Day HCV Replicon IC50 Assay.

[4] = test system: HCV NS3 protease variant replicon V36M-R155T; experiment: microbe, parasite or virus in culture; type: cell-based; settings: for Fold Change: V36M-R155T, ratio of mutant IC50 to Wild type IC50 for the same inhibitor
Method: as §1, §2, §3, §4

[5] = test system: HCV NS3 protease variant replicon R155T; experiment: microbe, parasite or virus in culture; type: cell-based; settings: for Fold Change: R155T, ratio of mutant IC50 to Wild type IC50 for the same inhibitor
Method: as §1, §2, §3, §4

[6] = test system: HCV NS3 protease variant replicon R155M; experiment: microbe, parasite or virus in culture; type: cell-based; settings: for Fold Change: R155M, ratio of mutant IC50 to Wild type IC50 for the same inhibitor
Method: as §1, §2, §3, §4

[7] = test system: HCV NS3 protease variant replicon V36M+R155K; experiment: microbe, parasite or virus in culture; type: cell-based; settings: for Fold Change: V36M-R155K, ratio of mutant IC50 to Wild type IC50 for the same inhibitor
Method: as §1, §2, §3, §4

[8] = test system: HCV NS3 protease variant replicon V36M; experiment: microbe, parasite or virus in culture; type: cell-based; settings: for IC50: Hepatitis C virus; for Fold Change: V36M, ratio of mutant IC50 to Wild type IC50 for the same inhibitor
Method: as §1, §2, §3, §4

[9] = test system: HCV NS3 protease variant replicon R155K; experiment: microbe, parasite or virus in culture; type: cell-based; settings: for IC50: Hepatitis C virus; for Fold Change: R155K, ratio of mutant IC50 to Wild type IC50 for the same inhibitor
Method: as §1, §2, §3, §4

[10] = test system: HCV NS3 protease variant replicon V36A-R155T; experiment: microbe, parasite or virus in culture; type: cell-based; settings: for Fold Change: V36A-R155T, ratio of mutant IC50 to Wild type IC50 for the same inhibitor
Method: as §1, §2, §3, §4

[11] = test system: HCV NS3 protease variant replicon V36A-R155K; experiment: microbe, parasite or virus in culture; type: cell-based; settings: for Fold Change: V36A-R155K, ratio of mutant IC50 to Wild type IC50 for the same inhibitor
Method: as §1, §2, §3, §4

[12] = test system: HCV NS3 protease variant replicon T54A; experiment: microbe, parasite or virus in culture; type: cell-based; settings: for IC50: Hepatitis C virus; for Fold Change: T54A, ratio of mutant IC50 to Wild type IC50 for the same inhibitor
Method: as §1, §2, §3, §4

[13] = test system: HCV replicon Wild Type (mADE); experiment: 2-Day HCV Replicon IC50 Assay, wild type replicon; type: cell-based; settings: for IC50: Hepatitis C virus; for Fold Change: ratio of IC50 to Wild type IC50 for the same inhibitor
Method: as §1, §2, §3, §4

[14] = test system: HCV NS3 protease variant replicon A156T; experiment: 2-Day HCV Replicon IC50 Assay, A156T; type: cell-based
Method: as §1, §2, §3, §4

[15] = test system: HCV NS3 protease variant replicon A156V; experiment: 2-Day HCV Replicon IC50 Assay, A156V; type: cell-based
Method: as §1, §2, §3, §4

[16] = test system: HCV replicon cells (wild-type clone 24-2, Huh-7); experiment: 2-day Replicon assay with bDNA quantitation, checkerboard combination (Bliss independence / MacSynergy); type: cell-based; settings: Hepatitis C virus, Huh-7, 48 h, polymerase inhibitor in the checkerboard experiment with VX-950, read-out: Polymerase Inhibitor IC50
Method: Huh-7 cells were propagated in Dulbecco's modified Eagle's medium (DMEM, JRH Biosciences, Lenexa, Kans.) supplemented with 10% heat-inactivated FBS (fetal bovine serum), 2 mM L-glutamine, and nonessential amino acids (JRH). The cells were transfected with an in vitro transcribed HCV replicon RNA identical to replicon 1377neo/NS3-3′/wt as described by Lohmann et al. (1999). Stable cell clones were selected and maintained in the presence of 250 μg/mL G418 (Invitrogen, Carlsbad, Calif.). One of the clones, 24-2, was used as the wild-type in the subsequent HCV replicon assays for combination studies. The HCV NS3 protease variant replicons were constructed in the background of the mADE wild-type replicon as described previously [Chao Lin et al., “In Vitro Resistance Studies of Hepatitis C Virus Serine Protease Inhibitors, VX-950 and BILN 2061: Structural Analysis Indicates Different Resistance Mechanisms,” Journal of Biological Chemistry, 279(17); pp. 17508-17514 (2004)]. The replicon cells were propagated in DMEM supplemented with 10% FBS, 2 mM L-glutamine, nonessential amino acids, and 250 μg/mL G418. The cells were split twice per week in fresh media upon reaching confluence. There are approximately 200-300 copies of HCV RNA per 24-2 replicon cell.
as §2, §3
The effects of drug-drug combinations were evaluated using the Bliss independence model [W. R. Greco et al., “The search for synergy: a critical review from a response surface perspective,” Pharmacol. Rev., 47, pp. 331-385 (1995)]. The experimental data were analyzed by using MacSynergy, a three-dimensional analytical method developed by Prichard and Shipman [M. N. Prichard and C. […]

[17] = Hepatitis C virus, read-out: Avg. IC50
[18] = Hepatitis C virus, read-out: Avg. IC50 ± STDEV

| Compound | sensitivity of replicon [1] | sensitivity of replicon [2] | Fold Change [3] | Fold Change [4] | Fold Change [5] | Fold Change [6] | Fold Change [7] | Fold Change [8] | Fold Change [9] | Fold Change [10] | Fold Change [11] | Fold Change [12] | Fold Change ([13]; Wild Type replicon) | further results |
| --- | --- | --- | --- | --- | --- | --- | --- | --- | --- | --- | --- | --- | --- | --- |
| NC(=O)c1ncn([C@@H]2O[C@H](CO)[C@@H](O)[C@H]2O)n1 [Ribavirin, 1-beta-D-ribofuranosyl-1H-1,2,4-triazole-3-carboxamide, reference compound] | comparable to the wild-type | comparable to the wild-type | 0.7 | 0.6 | 0.6 | 0.7 | 0.7 | 0.6 | 0.6 | 0.7 | 0.6 | 0.4 | 1.0 | IC50 ([3]; read-out: Avg. IC50): 43.1 ± 21.3 µM; IC50 [4, 17]: 36.4 ± 1.3 µM; IC50 [5, 17]: 32.4 ± 17.7 µM; IC50 [6, 17]: 38.9 ± 4.7 µM; IC50 [7, 17]: 40.6 ± 6.1 µM; IC50 ([8]; read-out: Avg. IC50): 32.9 ± 17.8 µM; IC50 ([9]; read-out: Avg. IC50): 37.2 ± 17 µM; IC50 [10, 17]: 41.7 ± 21.6 µM; IC50 [11, 17]: 35.8 ± 2.2 µM; IC50 ([12]; read-out: Avg. IC50): 21.7 ± 11.1 µM; IC50 ([13]; Ribavirin, Wild Type (mADE) replicon, read-out: Avg. IC50): 57.8 ± 17.6 µM |
| CCN(CC)C1CCN(C(=O)Cn2c(-c3ccc(Cl)cc3)c(C3CCCCC3)c3ccc(C(=O)O)cc32)CC1 [Formula III] | – | – | 1.2 | – | – | – | 1.3 | 0.7 | 1.2 | – | – | 1.1 | 1.0 | Fold Change ([14]; A156T, ratio of mutant IC50 to Wild type IC50 for the same inhibitor): 1.0; IC50 [14, 18]: 0.306 ± 0.01 µM; Fold Change ([15]; A156V, ratio of mutant IC50 to Wild type IC50 for the same inhibitor): 0.9; IC50 [15, 18]: 0.297 ± 0.066 µM; IC50 [16]: 0.7 µM; IC50 ([3]; read-out: Avg. IC50 ± STDEV): 0.369 ± 0.066 µM; IC50 ([8]; read-out: Avg. IC50 ± STDEV): 0.227 ± 0.064 µM; IC50 ([9]; read-out: Avg. IC50 ± STDEV): 0.39 ± 0.065 µM; IC50 ([12]; read-out: Avg. IC50 ± STDEV): 0.337 ± 0.045 µM; IC50 ([13]; Table 8, Wild Type replicon, read-out: Avg. IC50 ± STDEV): 0.313 ± 0.032 µM |
| IFN-α | comparable to the wild-type | comparable to the wild-type | 0.9 | 0.3 | 0.4 | 0.4 | 0.9 | 1.0 | 1.3 | 0.3 | 0.6 | 0.3 | 1.0 | Avg. IC50 ([3]; IFN-α, V36A replicon): 10.3 ± 6.0 units/ml; Avg. IC50 ([4]; IFN-α, V36M-R155T replicon): 3.1 ± 0.2 units/ml; Avg. IC50 ([5]; IFN-α, R155T replicon): 4.8 ± 3.3 units/ml; Avg. IC50 ([6]; IFN-α, R155M replicon): 4.9 ± 1.0 units/ml; Avg. IC50 ([7]; IFN-α, V36M-R155K replicon): 10.1 ± 5.9 units/ml; Avg. IC50 ([8]; IFN-α, V36M replicon): 11.3 ± 5.9 units/ml; Avg. IC50 ([9]; IFN-α, R155K replicon): 15.2 ± 12.3 units/ml; Avg. IC50 ([10]; IFN-α, V36A-R155T replicon): 3.9 ± 2.1 units/ml; Avg. IC50 ([11]; IFN-α, V36A-R155K replicon): 6.8 ± 0.5 units/ml; Avg. IC50 ([12]; IFN-α, T54A replicon): 3.9 ± 0.5 units/ml; Avg. IC50 ([13]; IFN-α, Wild Type (mADE) replicon): 11.6 ± 1.1 units/ml |
